From patent US8178540B2 (priority 2006, dated 2012) come the findings set out here.

The structures appear in SMILES notation.

Data set [1] relates to tobacco budworm (Heliothis virescens). The settings on record: 2500 ppm; eggs sprayed, 6 days.
The next data set has as its system Sphaerotheca fuliginea. Nature of the data set: Use Example 8: protective action on cucumber leaves. The data set is classed as in vivo. The settings on record: 250 ppm (printed for RC 3 only); cucumber seedlings sprayed 1 day before inoculation; after seven days; untreated plants 90% infected. From the text: After inoculation, the trial plants were transferred to a green house.

The test system of another data set is Alternaria solani. Put plainly: Use Example 2: early blight of tomato, greenhouse, spores in 2% biomalt. The data set is classed as in vivo. The conditions noted are these: 250 ppm; tomato plants sprayed 1 day before inoculation; assessed after 5 days; untreated plants 90% infected. How it is done: The next day, the treated plants were inoculated with a spore suspension of Alternaria solani which contained 0.17×10^6 spores/ml in a 2% aqueous biomalt solution. The test plants were then placed in a water vapor-saturated chamber at temperatures of from 20 to 22° C. After 5 days the disease on the untreated infected control plants had developed to such an extent that the infection of all plants could be determined visually in %.

For a further data set, the system named is Phytophthora infestans. The data set is classed as in vivo. The settings on record: 250 ppm; tomato plants, sprayed 1 day before inoculation; after six days; untreated plants 90% infected.

As for `O=S(=O)(NCc1ccncn1)c1ccc(-c2ccc(Cl)cc2Cl)cc1` [Example 54], the mortality entry in data set [1] was “at least 75%”. As to `COc1nccc(CNS(=O)(=O)c2ccc(-c3ccc(Cl)cc3)cc2)n1` [Example 88], in the data set with Sphaerotheca fuliginea, the “infection (% diseased leaf area)” value is listed as “no infection”. With `COc1cc(CNS(=O)(=O)c2ccc(-c3ccc(Cl)cc3)cc2)ccn1` [RC 3], in the data set on Sphaerotheca fuliginea, the “infection (% diseased leaf area)” value is 90%. In the data set with Alternaria solani, `O=S(=O)(NCc1ccncc1)c1ccc(Oc2ccc(Cl)cc2)cc1` [RC 1] registered an infection of 40%. On to `O=S(=O)(NCc1ccncn1)c1ccc(Oc2ccc(Cl)cc2)cc1` [Example 199], for which the infection result in the data set with Alternaria solani is given as “less than or equal to 5%”. Turning to `O=S(=O)(NCc1ccncc1)c1ccc(-c2ccc(Cl)cc2)cc1` [RC 2], the “infection (% diseased leaf area)” value in the data set with Phytophthora infestans is listed as 90%.
